In US5616320A, “Use of antibiotics 10381b to promote growth” (The Upjohn Company, priority 1994, dated 1997):

Key:
Bacillus subtilis = assay: Antibacterial spectrum, disc zone of inhibition; type: cell-based; details: UC 564; 1/2 inch discs, 80 μl
Procedure: (§1) ^1 Assays marked * used 1/4 inch (6.35 mm) discs and 20 μl
(§2) All other assays used 1/2 inch (12.7 mm) discs and 80 μl samples.
(§3) h = hazy; vl = very light; tr = trace. Assay procedures are described in
(§4) Hanka, L. J., M. R. Burch and W. T. Sokolski. Psicofuranine. IV.
(§5) Microbiological assay. Antibiot. and Chemoth. 9:432-435 (1959).

Bacteroides fragilis = assay: Antibacterial spectrum, disc zone of inhibition; type: cell-based; details: UC 6513; 1/2 inch discs, 80 μl
Procedure: as §1, §2, §3, §4, §5

[1] = tested on: Bordetella bronchiseptica; assay: Antibacterial spectrum, disc zone of inhibition; type: cell-based; details: UC 6481; 1/2 inch discs, 80 μl
Procedure: as §1, §2, §3, §4, §5

Candida albicans = assay: Antibacterial spectrum, disc zone of inhibition; type: cell-based; details: UC 1392
Procedure: as §1, §2, §3, §4, §5

Clostridium perfrigens = assay: Antibacterial spectrum, disc zone of inhibition; type: cell-based; details: UC 6509; 1/2 inch discs, 80 μl
Procedure: as §1, §2, §3, §4, §5

Escherichia coli = assay: Antibacterial spectrum, disc zone of inhibition; type: cell-based; details: UC 51; 1/2 inch discs, 80 μl
Procedure: as §1, §2, §3, §4, §5

Hemophilus influenzae = assay: Antibacterial spectrum, disc zone of inhibition; type: cell-based; details: UC 6483; 1/4 inch discs, 20 μl
Procedure: as §1, §2, §3, §4, §5

Klebsiella pneumoniae = assay: Antibacterial spectrum, disc zone of inhibition; type: cell-based; details: UC 57; 1/2 inch discs, 80 μl
Procedure: as §1, §2, §3, §4, §5

Micrococcus luteus = assay: Antibacterial spectrum, disc zone of inhibition; type: cell-based; details: 1/2 inch discs, 80 μl
Procedure: as §1, §2, §3, §4, §5

Mycobacterium avium = assay: Antibacterial spectrum, disc zone of inhibition; type: cell-based; details: UC 159; 1/2 inch discs, 80 μl
Procedure: as §1, §2, §3, §4, §5

Pasteurella hemolytica = assay: Antibacterial spectrum, disc zone of inhibition; type: cell-based; details: UC 6531; 1/2 inch discs, 80 μl
Procedure: as §1, §2, §3, §4, §5

Penicillium oxalicum = assay: Antibacterial spectrum, disc zone of inhibition; type: cell-based; details: UC 1268
Procedure: as §1, §2, §3, §4, §5

Proteus vulgaris = assay: Antibacterial spectrum, disc zone of inhibition; type: cell-based; details: UC 93; 1/2 inch discs, 80 μl
Procedure: as §1, §2, §3, §4, §5

Pseudomonas aeruginosa = assay: Antibacterial spectrum, disc zone of inhibition; type: cell-based; details: UC 95; 1/2 inch discs, 80 μl
Procedure: as §1, §2, §3, §4, §5

[2] = tested on: Rhodopseudomonas sphaeroides; assay: Antibacterial spectrum, disc zone of inhibition; type: cell-based; details: UC 3238; 1/2 inch discs, 80 μl
Procedure: as §1, §2, §3, §4, §5

Saccharomyces cerevisiae = assay: Antibacterial spectrum, disc zone of inhibition; type: cell-based; details: UC 1342
Procedure: as §1, §2, §3, §4, §5

[3] = tested on: Salmonella schottmuelleri; assay: Antibacterial spectrum, disc zone of inhibition; type: cell-based; details: UC 126; 1/2 inch discs, 80 μl
Procedure: as §1, §2, §3, §4, §5

Serratia marcescens = assay: Antibacterial spectrum, disc zone of inhibition; type: cell-based; details: UC 6888; 1/4 inch discs, 20 μl
Procedure: as §1, §2, §3, §4, §5

Staphylococcus aureus = assay: Antibacterial spectrum, disc zone of inhibition; type: cell-based
Procedure: as §1, §2, §3, §4, §5

Streptococcus faecalis = assay: Antibacterial spectrum, disc zone of inhibition; type: cell-based
Procedure: as §1, §2, §3, §4, §5

Streptococcus pyogenes = assay: Antibacterial spectrum, disc zone of inhibition; type: cell-based; details: UC 152
Procedure: as §1, §2, §3, §4, §5

Neisseria gonorrhoeae = assay: Antibacterial spectrum, disc zone of inhibition; type: cell-based; design: key: hazy; vl: very light; trace; details: UC 3065; 1/4 inch discs, 20 μl
Procedure: as §1, §2, §3, §4, §5

[4] = tested on: Staphylococcus epidermidis; assay: Antibacterial spectrum, disc zone of inhibition; type: cell-based; design: key: hazy; vl: very light; trace; details: UC 719; 1/4 inch discs, 20 μl
Procedure: as §1, §2, §3, §4, §5

Streptococcus pneumoniae = assay: Antibacterial spectrum, disc zone of inhibition; type: cell-based; design: key: hazy; vl: very light; trace; details: UC 9207; 1/4 inch discs, 20 μl
Procedure: as §1, §2, §3, §4, §5

Solubility = type: physicochemical
Toxicity = assay: Toxicity; design: species or system mammals
[5] = tested on: Gram-positive bacteria, yeasts, and fungi; assay: In vitro antimicrobial activity (statement in words); type: cell-based
yeasts and fungi = assay: Growth inhibition (statement in words); type: cell-based

SMILES: CC(CCN(C)C(=N)N)C(N)C(=O)NC1C=CC(n2ccc(N)nc2=O)OC1C(=O)O (centres unmarked) [Antibiotic 10381a1]
- Zone of Inhibition (Bacillus subtilis): 0 mm
- Zone of Inhibition (Bacteroides fragilis): 21 mm
- Zone of Inhibition [1]: 0 mm
- activity (Candida albicans): active
- Zone of Inhibition (Candida albicans; 1/4 inch discs, 20 μl): 12 mm
- Zone of Inhibition (Clostridium perfrigens): 18 mm
- Zone of Inhibition (Escherichia coli): 0 mm
- Zone of Inhibition (Hemophilus influenzae): 10 mm
- Zone of Inhibition (Klebsiella pneumoniae): 0 mm
- Zone of Inhibition (Micrococcus luteus; UC 130): 32 mm
- Zone of Inhibition (Micrococcus luteus; UC 3383): 32 mm
- Zone of Inhibition (Mycobacterium avium): 17 mm
- Zone of Inhibition (Pasteurella hemolytica): 0 mm
- activity (Penicillium oxalicum): active
- Zone of Inhibition (Penicillium oxalicum; 1/2 inch discs, 80 μl): 36 mm
- Zone of Inhibition (Proteus vulgaris): 0 mm
- Zone of Inhibition (Pseudomonas aeruginosa): 0 mm
- Zone of Inhibition [2]: 33 mm
- activity (Saccharomyces cerevisiae): active
- Zone of Inhibition (Saccharomyces cerevisiae; 1/2 inch discs, 80 μl): 31 mm
- Zone of Inhibition [3]: 0 mm
- Zone of Inhibition (Serratia marcescens): 0 mm
- Zone of Inhibition (Staphylococcus aureus; UC 80, 1/2 inch discs, 80 μl): 16 h
- Zone of Inhibition (Staphylococcus aureus; UC 3665, 1/2 inch discs, 80 μl): 0 mm
- Zone of Inhibition (Staphylococcus aureus; UC 6685, 1/4 inch discs, 20 μl): 0 mm
- Zone of Inhibition (Streptococcus faecalis; UC 221, 1/4 inch discs, 20 μl): 10 vl
- activity (Streptococcus faecalis; UC 694): active
- activity (Streptococcus pyogenes): active
- Zone of Inhibition (Streptococcus pyogenes; 1/2 inch discs, 80 μl): 25 mm
- Zone of Inhibition (Neisseria gonorrhoeae): tr
- Zone of Inhibition [4]: tr
- Zone of Inhibition (Streptococcus pneumoniae): tr
- Solubility (Solubility; acetone, ethyl acetate, ether and chlorinated or saturated hydrocarbon solvents): Insoluble
- Solubility (Solubility; water and lower alcohols): Soluble
- toxicity relative to blasticidin (Toxicity; compared with blasticidin): less toxicity than blasticidin
- toxicity (Toxicity; in mammals / versus prior art antibiotics): greatly reduced toxicity
- antimicrobial activity [5]: broad spectrum antibiotic properties
- growth inhibitory effect (yeasts and fungi): especially strong growth inhibitory effect
